Here are results for 19 compounds from the SangsterLogP compilation.

The series is described as follows: method code SF-AS, from DOI: 10.1007/bf00500963, PMID: 600309.
`Fc1cccc(Cl)c1N=C1NCCN1` gave a lipophilicity (logP) of 1.45.

Compound `Cc1cc(C)c(N=C2NCCN2)c(C)c1` registered a logP of 2.32.

Turning to `Clc1ccccc1N=C1NCCN1`, the logP turned out to be 1.36.

On to `Cc1ccc(N=C2NCCN2)c(C)c1`, for which the logP is 1.78.

`Cc1cc(Br)cc(C)c1N=C1NCCN1` registered a logP of 2.8.

In the case of `Clc1cccc(Cl)c1N=C1NCCN1`, the logP was 1.59.

Compound `Clc1cccc(Br)c1N=C1NCCN1` had a logP of 1.73.

In turn, `Brc1cc(Br)c(N=C2NCCN2)c(Br)c1` displayed a logP of 2.74.

Compound `Clc1ccc(Cl)c(N=C2NCCN2)c1` registered a logP of 2.04.

Compound `Clc1cccc(NC2=NCCN2)c1Cl` displayed a logP of 2.01. The logP values of the last two compounds are within 0.2 log units of each other.

In the case of `CCc1cccc(CC)c1N=C1NCCN1`, the logP came to 2.6.

For the compound `COc1cc(Cl)c(N=C2NCCN2)c(Cl)c1`, the logP was 1.6.

Compound `O=[N+]([O-])c1cc(Cl)c(N=C2NCCN2)c(Cl)c1` yielded a logP of 2.1.

As for `Cc1cc(C)c(N=C2NCCN2)c(Cl)c1`, the logP worked out at 2.1.

`Cc1cc(Cl)c(NC2=NCCN2)c(Cl)c1` returned a logP of 1.92.

For `Clc1cc(Br)cc(Cl)c1N=C1NCCN1`, the logP worked out at 2.66.

Take `Cc1ccccc1N=C1NCCN1`: the logP came out at 1.28.

Compound `Cc1cc(Cl)cc(C)c1N=C1NCCN1` had a logP of 2.5.

The compound `Cc1cc(Cl)cc(Cl)c1N=C1NCCN1` yielded a logP of 2.38.

By logP is commonly meant the decadic logarithm of the partition coefficient of the neutral form, usually between octanol and water. Low values mean a more hydrophilic compound, high ones a more lipophilic compound.
